For assay [1], the system named is Staphylococcus aureus Mu3. Nature of the assay: Antibacterial effect in combination with calcium channel blockers. The assay is classed as cell-based. To be noted: 12.5 μM compound 8 (4×MIC), dose dependent. As for the experimental part: Exponential phase Staphylococcus aureus Mu3 was treated with compound 8 (4×MIC) or combination with calcium channel blocker. Data were representative of mean±S.D. of four individual experiments with error bars. Statistical analysis was performed by one-way ANOVA with Dunnett's post-test to calculate p-values adjusted for multiple comparisons with initial bacteria inoculum as control condition (*p<0.05; **p<0.01; ***p<0.001).
Data were representative of mean±S.D. of four individual experiments with error bars. Statistical analysis was performed by one-way ANOVA with Dunnett's post-test to calculate p-values adjusted for multiple comparisons with initial bacteria inoculum as control condition (*p<0.05; **p<0.01; ***p<0.001).

For assay [2], the system named is Staphylococcus aureus ATCC 29213 cytoplasm pH. Nature of the assay: Cytoplasmic pH measurement with pHluorin. The assay is classed as cell-based. To be noted: pHluorin fluorescence ratio, 5 minutes incubation. As for the experimental part: Cytoplasm pH was monitored by pH sensitive fluorescent protein over time (s). 2 μM nigericin (Nig) and 2 μM valinomycin (Val) were used as positive control and 1% DMSO was used as negative control. Data represented the mean±S.D. of biological triplicates. Statistical analysis was performed by one-way ANOVA with Dunnett's post-test to calculate p-values adjusted for multiple comparisons with DMSO negative control (*p<0.05; **p<0.01; ***p<0.001).
To construct pHluorinsarA plasmid, pGLsarA plasmid vector was PCR amplified using primers pGL-f (CTGCAGGCATGCAAG; SEQ ID NO: 1) and pGL-r ([…]: SEQ ID NO: 2). […]
A pHlourin standard curve correlating pH and fluorescence ratio was constructed. Briefly, the emission at 510 nm was monitored with excitation wavelengths at 410 nm and 470 nm simultaneously following previously described protocol^18 Overnight culture Staphylococcus aureus ATCC 29213 was sub-cultured 1:100 in fresh CAMH medium and regrown to exponential phase. […] Fluorescence ratio (Excitation wavelength 410 nm/470 nm; emission wavelength 510 nm) was then measured in 1 mL cuvette using Hitachi F-4500 Florescence Spectrometer and plotted against the pH of the buffer. […]

Assay [3] concerns Staphylococcus aureus strain USA300-LAC. The experiment in a line: Non-lethal bacteremia model, bacteria loads in organs. The following applies: 10 mg/kg/day intraperitoneal, 4 days. The assay is classed as in vivo, Balb/c mice. How it is done: FIG. 9 are the bar graphs showing compound 8 and compound 35 reduce bacteria loads in different organs of the mice infected by Staphylococcus aureus. Grubb's test was performed to test for outliers. Statistical analysis was performed with two-sided paired t test. (*p<0.05).
Staphylococcus aureus strain USA300-LAC were cultured to the early exponential phase of growth, washed twice with sterile phosphate-buffered saline solution (PBS), and resuspended in PBS at 5×10^6 CFU/200 μL for non-lethal bacteremia model. The female Balb/c mice, 6-8 weeks, were infected intravenously (i.v.) through the tail vein with Staphylococcus aureus and randomized into three groups (N=14 for vehicle; N=12 for compound 8 and compound 35 respectively). One hour after infection, mice received intraperitoneal injections of compound 8 or compound 35 (10 mg/kg/day) or an injection of buffer (PBS with 2.5% DMSO and 2% Tween-80) as the control. The compound and injection buffer treatments were performed twice per day at 12-h intervals. The challenged mice were monitored for 4 days, at which point all the remaining mice were sacrificed. The CFU of S. aureus were determined in heart, liver, kidney and lung by plating in series dilution. Grubb's test was performed to test for outliers. Statistical analysis was performed with two-sided paired t test. (*p<0.05).

The record followed here is patent US20240315992A1, “AMINOXY ACID-BASED ANTIBACTERIAL COMPOUNDS AND METHODS THEREOF” (The University of Hong Kong, priority 2023, published 2024).

Each structure is given as a SMILES string.

As for `CC(C)C[C@H](ONC(=O)[C@@H](COCc1ccccc1)ONC(=O)c1cc(C(F)(F)F)cc(C(F)(F)F)c1)C(=O)Nc1ccccc1` [Compound 8], the “antibacterial effect in combination with calcium channel blocker verapamil or benidipine” value in assay [1] is “calcium channel blockers can antagonize the antibacterial effect”. In assay [2], the “cytoplasm pH” value is recorded as “can acidify Staphylococcus aureus cytoplasm”. Also, in assay [3], the “bacteria load in heart” value was “can reduce the bacteria load” and the “bacteria load in lung” value is recorded as “can reduce the bacteria load”.
